Test results from paper PMC10170162, “Identification of a new gibberellin receptor agonist, diphegaractin, by a cell-free chemical screening system” (Communications Biology, 2023).

Tests used:
Test in all cases: AlphaScreen GID1-DELLA interaction
Type in all cases: biochemical
OsGID1 (with OsSLR) = target: T1, OsGID1 (with OsSLR) (Oryza sativa, UniProt Q6L545, V326I/L330F); settings: agonist; partner OsSLR; pH 8.0, 26 °C; unpurified cell-free proteins
T1 construct: gene GID1; C-terminal biotinylated GID1 and C-terminal FLAG-tagged DELLA, wheat germ cell-free synthesis, unpurified; with DELLA protein SLR1
T1 sequence (Q6L545 1-354 V326I/L330F): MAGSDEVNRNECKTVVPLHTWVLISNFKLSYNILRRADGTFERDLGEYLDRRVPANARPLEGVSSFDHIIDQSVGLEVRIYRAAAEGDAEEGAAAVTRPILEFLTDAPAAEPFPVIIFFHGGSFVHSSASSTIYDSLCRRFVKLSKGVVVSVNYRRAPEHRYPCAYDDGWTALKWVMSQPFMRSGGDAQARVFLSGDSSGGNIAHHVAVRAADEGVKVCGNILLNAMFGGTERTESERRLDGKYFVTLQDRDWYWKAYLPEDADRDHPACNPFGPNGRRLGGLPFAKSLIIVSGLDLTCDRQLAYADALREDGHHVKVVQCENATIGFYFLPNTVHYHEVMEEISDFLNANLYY
T1 sequence (Q7G7J6 1-625 partner): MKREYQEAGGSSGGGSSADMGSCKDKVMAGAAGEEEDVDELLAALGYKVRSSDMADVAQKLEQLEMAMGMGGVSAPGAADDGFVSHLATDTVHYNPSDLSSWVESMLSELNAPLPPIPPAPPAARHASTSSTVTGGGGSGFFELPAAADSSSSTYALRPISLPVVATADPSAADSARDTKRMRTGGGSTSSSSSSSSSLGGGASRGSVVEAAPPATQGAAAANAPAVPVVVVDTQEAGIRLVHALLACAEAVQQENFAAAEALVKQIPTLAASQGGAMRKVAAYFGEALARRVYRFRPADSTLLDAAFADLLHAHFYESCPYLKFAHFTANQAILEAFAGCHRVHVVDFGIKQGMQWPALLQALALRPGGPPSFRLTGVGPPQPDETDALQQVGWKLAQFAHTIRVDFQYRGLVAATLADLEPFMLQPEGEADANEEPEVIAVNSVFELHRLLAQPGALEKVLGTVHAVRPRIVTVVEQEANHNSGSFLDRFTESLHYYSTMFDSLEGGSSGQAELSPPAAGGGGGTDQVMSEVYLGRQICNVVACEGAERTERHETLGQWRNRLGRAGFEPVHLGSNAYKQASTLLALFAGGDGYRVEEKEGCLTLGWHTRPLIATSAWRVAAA

AtGID1c (with AtRGA) = target: T2, AtGID1c (with AtRGA) (Arabidopsis thaliana, UniProt Q940G6); settings: agonist; partner AtRGA (also AtGAI); pH 8.0, 26 °C; unpurified cell-free proteins
T2 construct: gene GID1C; C-terminal biotinylated GID1 and C-terminal FLAG-tagged DELLA, wheat germ cell-free synthesis, unpurified; also tested with AtGAI; with DELLA protein RGA
T2 sequence (Q940G6 2-344): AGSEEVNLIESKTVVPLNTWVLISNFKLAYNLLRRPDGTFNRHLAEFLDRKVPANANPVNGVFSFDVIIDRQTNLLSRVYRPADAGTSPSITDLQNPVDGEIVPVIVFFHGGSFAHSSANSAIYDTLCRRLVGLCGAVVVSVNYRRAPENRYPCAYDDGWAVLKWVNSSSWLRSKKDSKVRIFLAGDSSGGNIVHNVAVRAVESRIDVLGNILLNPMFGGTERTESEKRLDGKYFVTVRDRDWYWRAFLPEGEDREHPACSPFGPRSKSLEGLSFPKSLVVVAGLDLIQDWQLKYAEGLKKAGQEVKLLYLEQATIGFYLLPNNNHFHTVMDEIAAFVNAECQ
T2 sequence (Q9SLH3 1-587 partner): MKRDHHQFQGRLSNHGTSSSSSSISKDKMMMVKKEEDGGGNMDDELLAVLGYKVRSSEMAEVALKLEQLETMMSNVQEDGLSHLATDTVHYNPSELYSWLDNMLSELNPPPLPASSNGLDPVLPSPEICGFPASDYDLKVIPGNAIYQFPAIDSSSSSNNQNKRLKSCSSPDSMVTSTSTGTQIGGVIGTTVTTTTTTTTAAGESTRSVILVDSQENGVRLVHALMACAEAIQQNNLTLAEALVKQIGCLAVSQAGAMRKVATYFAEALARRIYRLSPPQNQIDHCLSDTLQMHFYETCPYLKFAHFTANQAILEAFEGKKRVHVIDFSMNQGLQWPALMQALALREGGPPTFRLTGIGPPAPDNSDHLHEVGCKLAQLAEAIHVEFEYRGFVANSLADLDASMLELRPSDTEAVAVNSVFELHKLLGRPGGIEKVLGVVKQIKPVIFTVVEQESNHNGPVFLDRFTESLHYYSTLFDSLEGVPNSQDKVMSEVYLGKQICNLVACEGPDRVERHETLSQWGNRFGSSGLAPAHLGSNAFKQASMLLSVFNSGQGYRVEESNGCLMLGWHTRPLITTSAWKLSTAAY

VvGID1b (with VvDELLA2) = target: T3, VvGID1b (with VvDELLA2) (Vitis vinifera, UniProt F6HQ36); settings: agonist; partner VvDELLA2 (also VvDELLA1); dose series; pH 8.0, 26 °C; unpurified cell-free proteins
T3 construct: C-terminal biotinylated GID1 and C-terminal FLAG-tagged DELLA, wheat germ cell-free synthesis, unpurified; cDNA from grape leaf mRNA; with DELLA protein
T3 sequence (F6HQ36 1-344): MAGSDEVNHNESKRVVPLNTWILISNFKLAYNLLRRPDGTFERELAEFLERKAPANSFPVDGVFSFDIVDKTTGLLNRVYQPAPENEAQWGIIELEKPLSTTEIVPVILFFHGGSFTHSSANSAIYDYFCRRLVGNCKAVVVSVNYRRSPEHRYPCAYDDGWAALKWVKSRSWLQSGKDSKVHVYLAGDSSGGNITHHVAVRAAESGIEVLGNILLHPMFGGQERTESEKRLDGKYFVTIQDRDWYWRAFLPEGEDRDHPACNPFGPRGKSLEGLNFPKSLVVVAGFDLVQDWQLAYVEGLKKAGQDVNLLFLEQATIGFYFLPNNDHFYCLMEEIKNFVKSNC
T3 sequence (F6HH58 1-532 partner): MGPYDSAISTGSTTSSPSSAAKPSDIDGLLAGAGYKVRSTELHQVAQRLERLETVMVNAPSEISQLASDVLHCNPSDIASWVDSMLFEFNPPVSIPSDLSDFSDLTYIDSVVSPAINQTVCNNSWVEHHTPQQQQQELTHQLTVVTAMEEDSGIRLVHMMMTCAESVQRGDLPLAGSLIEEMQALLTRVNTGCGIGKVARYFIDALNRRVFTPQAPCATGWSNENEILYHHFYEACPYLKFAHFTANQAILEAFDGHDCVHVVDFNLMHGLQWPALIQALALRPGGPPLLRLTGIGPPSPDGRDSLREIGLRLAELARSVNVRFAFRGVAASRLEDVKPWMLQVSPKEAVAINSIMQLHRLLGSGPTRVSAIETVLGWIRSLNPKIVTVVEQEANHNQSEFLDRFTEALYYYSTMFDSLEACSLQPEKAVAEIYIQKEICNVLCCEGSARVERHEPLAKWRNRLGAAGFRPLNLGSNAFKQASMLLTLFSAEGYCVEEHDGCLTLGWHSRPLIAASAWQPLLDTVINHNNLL

AtGID1b (with AtRGA) = target: T4, AtGID1b (with AtRGA) (Arabidopsis thaliana, UniProt Q9LYC1); settings: agonist; partner AtRGA; pH 8.0, 26 °C; unpurified cell-free proteins
T4 construct: gene GID1B; C-terminal biotinylated GID1 and C-terminal FLAG-tagged DELLA, wheat germ cell-free synthesis, unpurified; with DELLA protein RGA
T4 sequence (Q9LYC1 2-358): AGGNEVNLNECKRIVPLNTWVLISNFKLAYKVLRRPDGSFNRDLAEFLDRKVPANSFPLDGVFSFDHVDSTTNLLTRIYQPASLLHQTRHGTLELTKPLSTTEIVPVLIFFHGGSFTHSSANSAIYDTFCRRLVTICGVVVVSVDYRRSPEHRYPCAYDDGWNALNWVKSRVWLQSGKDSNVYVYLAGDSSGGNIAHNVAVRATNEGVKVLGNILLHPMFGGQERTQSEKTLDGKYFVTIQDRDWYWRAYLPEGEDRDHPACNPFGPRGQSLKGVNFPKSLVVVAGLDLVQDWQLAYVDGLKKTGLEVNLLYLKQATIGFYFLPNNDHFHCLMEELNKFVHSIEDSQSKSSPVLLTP
T4 sequence (Q9SLH3 1-587 partner): T2 sequence (Q9SLH3 1-587 partner)

VvGID1a (with VvDELLA2) = target: T5, VvGID1a (with VvDELLA2) (Vitis vinifera, UniProt A5BRG2); settings: agonist; partner VvDELLA2 (also VvDELLA1, VvDELLA3); dose series; pH 8.0, 26 °C; unpurified cell-free proteins
T5 construct: C-terminal biotinylated GID1 and C-terminal FLAG-tagged DELLA, wheat germ cell-free synthesis, unpurified; also tested with VvDELLA1 and VvDELLA3; with DELLA protein
T5 sequence (A5BRG2 1-344): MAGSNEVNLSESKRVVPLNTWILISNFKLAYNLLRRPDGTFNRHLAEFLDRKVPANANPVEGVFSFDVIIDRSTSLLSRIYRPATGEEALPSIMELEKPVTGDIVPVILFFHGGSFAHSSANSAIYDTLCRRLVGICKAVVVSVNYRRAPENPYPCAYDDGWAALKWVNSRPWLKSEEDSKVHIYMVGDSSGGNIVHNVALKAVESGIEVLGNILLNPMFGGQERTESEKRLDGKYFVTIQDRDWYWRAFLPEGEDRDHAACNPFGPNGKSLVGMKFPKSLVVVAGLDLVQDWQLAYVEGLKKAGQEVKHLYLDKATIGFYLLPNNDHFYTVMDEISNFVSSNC
T5 sequence (F6HH58 1-532 partner): T3 sequence (F6HH58 1-532 partner)

AlphaScreen GID1-DELLA interaction (AtGID1c (with AtRGA)) | SMILES | AlphaScreen GID1-DELLA interaction (OsGID1 (with OsSLR)) | AlphaScreen GID1-DELLA interaction (VvGID1b (with VvDELLA2)) | AlphaScreen GID1-DELLA interaction (AtGID1b (with AtRGA)) | AlphaScreen GID1-DELLA interaction (VvGID1a (with VvDELLA2))
AtGID1c with AtRGA and AtGAI | CCCCCC(C(=O)O)(c1ccccc1)c1ccccc1 [diphegaractin, 2,2-diphenylheptanoic acid] | OsGID1 V326I/L330F mutant increased the interaction with OsSLR by diphegaractin | diphegaractin induced two interactions, VvGID1b–VvDELLA1 and VvGID1b–VvDELLA2 | it promoted the interaction of AtGID1b with AtRGA | –
– | C=C1C[C@]23C[C@@]1(O)CC[C@H]2[C@@]12C=C[C@H](O)[C@@](C)(C(=O)O1)[C@H]2[C@@H]3C(=O)O [GA3] | swapping had little effect on the interaction between DELLA proteins and GA receptors by GA3 | VvGID1b also exhibited active and inactive GA-dependent interactions with VvDELLA1 and VvDELLA2 | – | VvGID1a exhibited GA-dependent interactions with VvDELLA1-3
– | C=C1C[C@]23C[C@H]1CC[C@H]2[C@@]12CC[C@H](O)[C@@](C)(C(=O)O1)[C@H]2[C@@H]3C(=O)O [GA4] | – | VvGID1b also exhibited active and inactive GA-dependent interactions with VvDELLA1 and VvDELLA2 | – | VvGID1a exhibited GA-dependent interactions with VvDELLA1-3
– | C=C1C[C@]23C[C@H]1CC[C@H]2[C@@]12C=C[C@H](O)[C@@](C)(C(=O)O1)[C@H]2[C@@H]3C(=O)O [GA7] | – | VvGID1b also exhibited active and inactive GA-dependent interactions with VvDELLA1 and VvDELLA2 | – | VvGID1a exhibited GA-dependent interactions with VvDELLA1-3
– | C=C1C[C@]23C[C@@]1(O)CC[C@H]2[C@@]12CC[C@H](O)[C@@](C)(C(=O)O1)[C@H]2[C@@H]3C(=O)O [GA1] | – | VvGID1b also exhibited active and inactive GA-dependent interactions with VvDELLA1 and VvDELLA2 | – | VvGID1a exhibited GA-dependent interactions with VvDELLA1-3
– | C=C1C[C@]23C[C@@]1(O)CC[C@H]2[C@@]12CCC[C@@](C)(C(=O)O1)[C@H]2[C@@H]3C(=O)O [GA20] | – | – | – | Although a much higher concentration was required, inactive GAs also induced these interactions
– | C=C1C[C@]23C[C@H]1CC[C@H]2[C@@]12CCC[C@@](C)(C(=O)O1)[C@H]2[C@@H]3C(=O)O [GA9] | – | – | – | Although a much higher concentration was required, inactive GAs also induced these interactions
